According to US20260218439A1, “METHOD OF TREATING OR REDUCING CANCER COMPRISING ADMINISTERING A COMPOUND 3-(BENZO[D][1,3]DIOXOL-5-YL)-7-(1-HYDROXYPROPAN-2-YL)-1-(1H-INDOLE-3-YL)-6,7-DIHYDRO-3H-OXAZOLE[3,4-A]PYRAZINE-5,8-DIONE” (BIOLAB SANUS FARMACEUTICA LTDA, priority 2019, published 2026):

What was measured:
PDE5A1 = target: T1, PDE5A1 (Homo sapiens, UniProt O76074); test: PDE5A1 fluorescence polarization enzyme assay (BPS Bioscience kit 60350); type: biochemical
T1 construct: purchased BPS Bioscience 60350
Method: The evaluation of the compound is studied using BPS Bioscience enzyme assay kit (catalogue 60350). The PDE5A1 Assay kit is designed for identification of PDE5A1 inhibitors using fluorescence polarization. The assay is based on the binding of a fluorescent nucleotide monophosphate generated by PDE5A1 enzyme to the binding agent.
In this methodology only two simple steps on a microtiter plate are required for PDE5A1 reactions. First, the fluorescently labeled cGMP is incubated with PDE5A1 for 1 hour. Second, the binding agent is added to the reaction mixture to produce a change in fluorescent polarization that can then be measured using a fluorescence reader equipped for the measurement of fluorescence polarization.
For the assay the storage reagent FAM-Cyclic-3′,5′-GMP (20 μM) is diluted with PDE assay buffer to achieve the solution with a […]; the PDE5A1 enzyme is thawed and diluted with the PDE buffer obtaining a PDE5A1 solution at 10 μg/mL.
The assay compounds are diluted with DMSO 100% (v/v) at a concentration of 1000 μM and subsequently diluted in a Sodium chloride 0.9% solution to obtain a curve of concentrations of interest for the assay. The compounds are diluted in concentrations of: 10 nM, 30 nM, 50 nM, 100 nM, 300 nM, 500 nM, 1 μM, 3 μM, 5 μM (DMSO 10% v/v).
The study is comprised of groups: (i) substrate control; (ii) positive control (KIT); (iii) samples in several concentrations; (iv) tadalafil (comparative control). Each parameter (group) is triple labeled.
• For the 4 groups there is added, to each microplate well, […] of the FAM-Cyclic-3′ reagent, 5′-GMP (200 μM). • To the substrate control group there is added, to each well, […] of vehicle (DMSO 10% v/v) and […] PDE Buffer. • To the positive control group there is added, to each well, […] of vehicle (DMSO 10% v/v). • To the tadalafil group: there is added 5 mL of the solution in the concentrations of interest. • To the test group there is added 5 mL of the sample solution (test compound)
OBSERVATION: the parameters tested are in triplicate.
To begin the reaction, add […] of the PDE5A1 enzyme (diluted as described above) to the microplate wells designated as Positive Control and Samples (test and tadalafil), and incubate the microplate, for 1 hour, at a temperature of 25° C.
After the incubation period, the reaction is interrupted by the addition, in all the wells, of […] of the binding agent solution and the microplate is incubated for 30 minutes, under light stirring, at room temperature. The reading of the microplate is carried out in Polarized Fluorescence (475-495 nm—excitation and 518-538 nm—emission detection) 500 nanoseconds integration time.

[1] = system: PC3-human prostate cancer cells; test: Cell proliferation inhibition (CYQuant intracellular DNA), PC3; type: cell-based; conditions: for % Cell Proliferation Inhibition (intracellular DNA) PC-3 (average ± E.P.M.): 72 hours
Method: (§1) For the execution of the assay, the compounds are diluted in DMSO 100% (v/v) at a concentration of 1000 μM and subsequently diluted in a Sodium Chloride solution 0.9% to obtain the storage solutions of interest for use in the assays. The final concentration of interest will be directly diluted in the cell culture medium. For the assay there are used the following tumor cell lineages: PC3-human prostate cancer cells; LNCAP-human prostate cancer cells; DU145-human prostate cancer; MNK45-human gastric cancer and RT4-human bladder cancer cells. The tumor cell lineages are maintained in culture according to standard procedures established by the Cell Bank of Rio de Janeiro (lineage place of origin) Procedure: • For the assay, the tumor cells are seeded in the concentration of 10.000 cells per well (final volume of the reaction of […]), the plate is incubated for 8 hours, for the cells to adhere to the wall of the wells. After this period, the plate is divided in groups: • (a) test group: […] of the samples were added (test compound) in the concentrations of interest; • (b) positive control group: […] of culture medium were added (100% of cell proliferation); • (c) negative control group: 200 mL of culture medium and […] of the vehicle used were added to dilute the compounds (without cells—zero proliferation); • (d) control group: […] were added of the vehicle used to dilute the compounds. This group is important to evaluate whether the vehicle used interferes in the cell proliferation. OBSERVATION: the treatment with the concentrations of samples (test compounds) and of the controls are carried out in triplicate. • Incubate the plate for 72 hours in a CO2 kiln at 37° C. • After the incubation period, add […] of the solution with DNA marker from the CYQuant Kit and incubate the plate, for 60 minutes, in a CO2 incubator at 37° C. The fluorescence intensity is determined using a fluorescence microplate reader with 485 nm excitation and 530 nm emission detection. The results obtained were normalized relative to the positive control group (100% proliferation). For the compounds there are prepared the storage solutions in the concentrations of: 100 nM, 1 μM, 3 μM, 5 μM, 10 μM and 30 μM (DMSO 10% v/v). While the final concentrations in the test are of: 10 nM, 100 nM, 300 nM, 500 nM, 1000 nM and 3000 nM (in DMSO 1% v/v).

[2] = system: LNCAP-human prostate cancer cells; test: Cell proliferation inhibition (CYQuant intracellular DNA), LNCAP; type: cell-based; conditions: for % Cell Proliferation Inhibition (intracellular DNA) LNCAP (average ± E.P.M.): 72 hours
Method: as §1

[3] = system: DU145-human prostate cancer; test: Cell proliferation inhibition (CYQuant intracellular DNA), DU145; type: cell-based; conditions: for % Cell Proliferation Inhibition (intracellular DNA) DU145 (average ± E.P.M.): 72 hours
Method: as §1

[4] = system: MNK45-human gastric cancer; test: Cell proliferation inhibition (CYQuant intracellular DNA), MNK45; type: cell-based; conditions: 72 hours
Method: as §1

[5] = system: RT4-human bladder cancer cells; test: Cell proliferation inhibition (CYQuant intracellular DNA), RT4; type: cell-based; conditions: for % Cell Proliferation Inhibition (intracellular DNA) RT4 (average ± E.P.M.): 72 hours
Method: as §1

% of Inhibition (PDE5A1) (PDE5A1; compound 10 nM): 0%
% of Inhibition (PDE5A1) (PDE5A1; compound 30 nM): 0%
% of Inhibition (PDE5A1) (PDE5A1; compound 50 nM): 0%
% of Inhibition (PDE5A1) (PDE5A1; compound 100 nM): 0%
% of Inhibition (PDE5A1) (PDE5A1; compound 300 nM): 15 ± 3%
% of Inhibition (PDE5A1) (PDE5A1; compound 500 nM): 25 ± 3%
% of Inhibition (PDE5A1) (PDE5A1; compound 1000 nM): 55 ± 4%
% of Inhibition (PDE5A1) (PDE5A1; compound 3000 nM): 65 ± 2%
% of Inhibition (PDE5A1) (PDE5A1; compound 5000 nM): 78 ± 1%
concentration as from which PDE5 inhibition was observed (PDE5A1; tested 10 nM to 5000 nM): ≥ 300 nM
Substance: (R)-3-(benzo [d][1, 3]dioxol-5-yl)-7-((R)-1-hydroxypropan-2-yl)-1-(1H-indole-3-yl)-6, 7-dihydro-3H-oxazole [3, 4-a]pyrazine-5, 8-dione with (S)-3-(benzo [d][1,3]dioxol-5-yl)-7-((R)-1-hydroxypropan-2-yl)-1-(1H-indole-3-yl)-6, 7-dihydro-3H-oxazole [3, 4-a]pyrazine-5, 8-dione [BL-380]
PDE5 inhibition (result in words) (PDE5A1; concentration series): capable of inhibiting the PDE5 in a dose-dependent manner
antiproliferative effect (result in words) ([1]; PC3 prostate cancer tumor lineage): presented antiproliferative effect
% Cell Proliferation Inhibition (intracellular DNA) PC-3 (average ± E.P.M.) ([1]; PC-3, 10 nM): 39 ± 6%
% Cell Proliferation Inhibition (intracellular DNA) PC-3 (average ± E.P.M.) ([1]; PC-3, 100 nM): 25 ± 5%
% Cell Proliferation Inhibition (intracellular DNA) PC-3 (average ± E.P.M.) ([1]; PC-3, 300 nM): 28 ± 2%
% Cell Proliferation Inhibition (intracellular DNA) PC-3 (average ± E.P.M.) ([1]; PC-3, 500 nM): 48 ± 6%
% Cell Proliferation Inhibition (intracellular DNA) PC-3 (average ± E.P.M.) ([1]; PC-3, 1000 nM): 40 ± 3%
% Cell Proliferation Inhibition (intracellular DNA) PC-3 (average ± E.P.M.) ([1]; PC-3, 3000 nM): 54 ± 4%
antiproliferative effect (result in words) ([2]; LNCAP prostate cancer tumor lineage): presented antiproliferative effect
% Cell Proliferation Inhibition (intracellular DNA) LNCAP (average ± E.P.M.) ([2]; 10 nM): 26 ± 10%
% Cell Proliferation Inhibition (intracellular DNA) LNCAP (average ± E.P.M.) ([2]; 100 nM): 12 ± 3%
% Cell Proliferation Inhibition (intracellular DNA) LNCAP (average ± E.P.M.) ([2]; 300 nM): 29 ± 6%
% Cell Proliferation Inhibition (intracellular DNA) LNCAP (average ± E.P.M.) ([2]; 500 nM): 27 ± 2%
% Cell Proliferation Inhibition (intracellular DNA) LNCAP (average ± E.P.M.) ([2]; 1000 nM): 37 ± 2%
% Cell Proliferation Inhibition (intracellular DNA) LNCAP (average ± E.P.M.) ([2]; 3000 nM): 48 ± 6%
% Cell Proliferation Inhibition (intracellular DNA) DU145 (average ± E.P.M.) ([3]; DU145, 100 nM): 12 ± 4%
% Cell Proliferation Inhibition (intracellular DNA) DU145 (average ± E.P.M.) ([3]; DU145, 300 nM): 10 ± 5%
% Cell Proliferation Inhibition (intracellular DNA) DU145 (average ± E.P.M.) ([3]; DU145, 500 nM): 12 ± 2%
% Cell Proliferation Inhibition (intracellular DNA) DU145 (average ± E.P.M.) ([3]; DU145, 1000 nM): 10 ± 3%
% Cell Proliferation Inhibition (intracellular DNA) DU145 (average ± E.P.M.) ([3]; DU145, 3000 nM): 31 ± 5%
antiproliferative effect (result in words) ([3]; DU145 prostate cancer tumor lineage): presented antiproliferative effect
% Cell Proliferation Inhibition (intracellular DNA) MNK45 (average ± E.P.M.) ([4]; MNK45, 100 nM): 7 ± 2%
% Cell Proliferation Inhibition (intracellular DNA) MNK45 (average ± E.P.M.) ([4]; MNK45, 300 nM): 0%
% Cell Proliferation Inhibition (intracellular DNA) MNK45 (average ± E.P.M.) ([4]; MNK45, 500 nM): 0%
% Cell Proliferation Inhibition (intracellular DNA) MNK45 (average ± E.P.M.) ([4]; MNK45, 1000 nM): 0%
% Cell Proliferation Inhibition (intracellular DNA) MNK45 (average ± E.P.M.) ([4]; MNK45, 3000 nM): 16 ± 5%
% Cell Proliferation Inhibition (intracellular DNA) RT4 (average ± E.P.M.) ([5]; RT4, 100 nM): 8 ± 6%
% Cell Proliferation Inhibition (intracellular DNA) RT4 (average ± E.P.M.) ([5]; RT4, 300 nM): 5 ± 5%
% Cell Proliferation Inhibition (intracellular DNA) RT4 (average ± E.P.M.) ([5]; RT4, 500 nM): 3 ± 5%
% Cell Proliferation Inhibition (intracellular DNA) RT4 (average ± E.P.M.) ([5]; RT4, 1000 nM): 3 ± 1%
% Cell Proliferation Inhibition (intracellular DNA) RT4 (average ± E.P.M.) ([5]; RT4, 3000 nM): 58 ± 4%
antiproliferative effect (result in words) ([5]; RT4 bladder cancer tumor lineage): presented antiproliferative effect
